The values below come from patent US20230285372A1, “Pharmaceutical use of (E)-3-arylheterocyclylprop-2-enoic acid derivatives” (MEDCURIUS INC., priority 2020, published 2023).

Structures are written as SMILES. Like-named read-outs stand apart in the source and are kept apart here.

The test system of the assay is HT-22 cells. As to the kind of experiment: Protective effect on HT-22 cell damage caused by L-glutamate monosodium salt. In kind it is cell-based, mouse. The settings on record: 15 mM L-glutamate; for protection of HT22 cells against L-glutamate monosodium salt damage, in words: comparison with positive control drug DMF; for viability at 0.078 µM / viability at 0.156 µM / viability at 0.625 µM / viability at 1.25 µM / viability at 2.5 µM / viability at 5 µM / viability at 10 µM / viability at 0.313 µM: Mus musculus, 24 hours. As for the experimental part: (§1) Well-proliferated HT-22 cells, derived from mouse hippocampal neuronal cells in logarithmic growth phase, were selected, and they were counted after being subjected to trypsin digestion and dispersion. The cell density was adjusted with DMEM/F12 medium (containing 10% FBS and 1% double antibody). The cells were then inoculated in a 96-well plate at a density of 2,000 cells per well, and cultured in a cell incubator at 37° C. in atmosphere containing 5% CO2 for 24 hours. For the control group and the L-glutamate monosodium salt group (model group), serum-free DMEM/F12 medium was added, and the other wells were added with tested compounds of different concentrations; except that the serum-free DMEM/F12 medium was added to the control group. L-glutamate monosodium salt solution at the final concentration of 15 mM was added to the remaining wells. After 24 hours, the cell viability was detected with a luminescent cell viability assay kit.
as §1, with “group,” for “group.”
as §1, with “2.000” for “2,000”, “group,” for “group.”

[1] abbreviates: HT-22, 24 h, Table 1, Conc 0.078 μm, L-Glu alone 27.73 (I-5 32.92), read-out: cell viability.
Setting [2] is: HT-22, 24 h, Table 1, Conc 0.156 μm, L-Glu alone 27.73 (I-5 32.92), read-out: cell viability.
Where [3] appears, read: HT-22, 24 h, Table 1, Conc 0.625 μm, L-Glu alone 27.73 (I-5 32.92), read-out: cell viability.
[4] abbreviates: HT-22, 24 h, Table 1, Conc 1.25 μm, L-Glu alone 27.73 (I-5 32.92), read-out: cell viability.
[5] abbreviates: HT-22, 24 h, Table 1, Conc 2.5 μm, L-Glu alone 27.73 (I-5 32.92), read-out: cell viability.
Setting [6] is: HT-22, 24 h, Table 1, Conc 5 μm, L-Glu alone 27.73 (I-5 32.92), read-out: cell viability.
The mark [7] stands for this setting: HT-22, 24 h, Table 1, Conc 10 μm, L-Glu alone 27.73 (I-5 32.92), read-out: cell viability.
The mark [8] stands for this setting: HT-22, Table 2, Conc 1.25 μM, L-Glu alone 27.83, read-out: Visibility %.
The mark [9] stands for this setting: HT-22, Table 2, Conc 2.5 μM, L-Glu alone 27.83, read-out: Visibility %.
Where [10] appears, read: HT-22, 24 h, Table 1, Conc 0.313 μm, L-Glu alone 27.73 (I-5 32.92), read-out: cell viability.
[11] abbreviates: HT-22, Table 2, Conc 0.156 μM, L-Glu alone 27.83, read-out: Visibility %.
Where [12] appears, read: HT-22, Table 2, Conc 5 μM, L-Glu alone 27.83, read-out: Visibility %.
[13] abbreviates: HT-22, Table 2, Conc 10 μM, L-Glu alone 27.83, read-out: Visibility %.
Where [14] appears, read: HT-22, Table 2, Conc 0.078 μM, L-Glu alone 27.83, read-out: Visibility %.
Where [15] appears, read: HT-22, Table 2, Conc 0.313 μM, L-Glu alone 27.83, read-out: Visibility %.

In the case of `Cc1coc(/C=C/C#N)n1` [Compound I-26], the “protection of HT22 cells against L-glutamate monosodium salt damage, in words” value (“protection of HT22 cells” below) was “perform far better than the positive control drug DMF”.
As for `CN(C)C(=O)/C=C/c1ccncc1` [Compound I-13], the “protection of HT22 cells” value is reported as “better effects than the positive control drug DMF”. For the same molecule, under setting [1], the viability at 0.078 µM stood at 52.4%. Further, under setting [2], the viability at 0.156 µM came out at 58.8%. In addition, under setting [3], the viability at 0.625 µM amounted to 64.9%. For the same molecule, the viability at 1.25 µM under setting [4] amounted to 61.6%. For the same molecule, the viability at 2.5 µM under setting [5] amounted to 59.7%. For the same molecule, the viability at 5 µM under setting [6] amounted to 51.5%. The viability at 10 µM under setting [7] turned out to be 51.6%.
As for `COC(=O)/C=C/c1nc(C)cs1` [Compound I-28], the “protection of HT22 cells” value was “perform far better than the positive control drug DMF”.
As to `COC(=O)/C=C/c1ncc[nH]1` [Compound I-22], under setting [8], the viability at 1.25 µM is 40%. Moreover, the viability at 2.5 µM under setting [9] was found to be 42.7%.
In the case of `CON(C)C(=O)/C=C/c1ccccn1` [Compound I-8], the “protection of HT22 cells” value is “better effects than the positive control drug DMF”. Moreover, under setting [2], the viability at 0.156 µM is 77.8%. Also, the viability at 0.313 µM under setting [10] turned out to be 70.6%. In addition, under setting [3], the viability at 0.625 µM is 71.1%. In addition, the viability at 1.25 µM under setting [4] was 54.6%. The viability at 2.5 µM under setting [5] worked out at 54.8%. The viability at 5 µM under setting [6] was 50.9%. For the same molecule, the viability at 10 µM under setting [7] was 53%.
Take `CN(C)C(=O)/C=C/c1cccnc1` [Compound I-12]: the viability at 0.078 µM under setting [1] was determined as 48.9%. Moreover, under setting [10], the viability at 0.313 µM was 50.8%. Further, under setting [3], the viability at 0.625 µM worked out at 49.5%. Under setting [4], the viability at 1.25 µM turned out to be 45.6%. For the same molecule, under setting [5], the viability at 2.5 µM worked out at 44.2%. The viability at 5 µM under setting [6] turned out to be 39.3%. Further, the viability at 10 µM under setting [7] came to 44.3%.
On to `COC(=O)/C=C/c1cccnc1` [Compound I-3], for which, under setting [1], the viability at 0.078 µM was determined as 46.8%. The viability at 0.156 µM under setting [2] is 50.6%. Besides, under setting [3], the viability at 0.625 µM amounted to 46.8%. Moreover, the viability at 1.25 µM under setting [4] was found to be 45.2%. Also, under setting [5], the viability at 2.5 µM was found to be 47.5%. Moreover, under setting [6], the viability at 5 µM was determined as 37.3%. Also, under setting [7], the viability at 10 µM amounted to 31.2%.
Regarding `COC(=O)NC(=O)/C=C/c1ccncc1` [Compound I-17], the viability at 0.156 µM under setting [11] worked out at 48.3%. Besides, the viability at 0.625 µM (HT-22, Table 2, Conc 0.625 μM, L-Glu alone 27.83, read-out: Visibility %) was 51.2%. The viability at 5 µM under setting [12] was 33.6%. For the same molecule, under setting [13], the viability at 10 µM is 31.2%.
Regarding `CN(C)C(=O)/C=C/c1ccncn1` [Compound I-20], the viability at 0.156 µM under setting [11] was determined as 43.4%. Moreover, the viability at 2.5 µM under setting [9] turned out to be 57.1%. Also, under setting [13], the viability at 10 µM amounted to 51.2%.
In the case of `COC(=O)/C=C/c1ccccn1` [Compound I-1], the viability at 0.078 µM under setting [1] turned out to be 38.7%. Besides, the viability at 0.156 µM under setting [2] amounted to 45.7%. For the same molecule, the viability at 0.625 µM under setting [3] turned out to be 47.9%. Moreover, under setting [4], the viability at 1.25 µM stood at 43.5%. Besides, the viability at 5 µM under setting [6] was determined as 38.4%. Moreover, the viability at 10 µM under setting [7] amounted to 33.4%.
For `CON(C)C(=O)/C=C/c1ccncc1` [Compound I-10], the viability at 0.078 µM under setting [1] amounted to 44.7%. Besides, under setting [2], the viability at 0.156 µM was determined as 43%. Moreover, under setting [10], the viability at 0.313 µM turned out to be 43.7%. In addition, under setting [3], the viability at 0.625 µM came out at 43.3%. The viability at 1.25 µM under setting [4] was 41.9%. Under setting [5], the viability at 2.5 µM is 47.8%. Besides, the viability at 5 µM under setting [6] is 43.4%. In addition, the viability at 10 µM under setting [7] is 37.5%.
With `CN(C)C(=O)/C=C/c1ccccn1` [Compound I-11], the viability at 0.078 µM under setting [1] was determined as 42.4%. Under setting [2], the viability at 0.156 µM was found to be 42.2%. Besides, the viability at 0.313 µM under setting [10] stood at 46.1%. Further, under setting [3], the viability at 0.625 µM turned out to be 44.2%. Moreover, the viability at 1.25 µM under setting [4] turned out to be 43.6%. For the same molecule, under setting [5], the viability at 2.5 µM was 46.5%. The viability at 5 µM under setting [6] was 35.4%. Besides, the viability at 10 µM under setting [7] was found to be 40.3%.
Take `COC(=O)/C=C/c1ncco1` [Compound I-27]: the “protection of HT22 cells” value was “perform better than the positive control drug DMF”.
On to `COC(=O)NC(=O)/C=C/c1ccccn1` [Compound I-15], for which, under setting [9], the viability at 2.5 µM was 43.1%. The viability at 10 µM under setting [13] was found to be 34.1%.
Regarding `Cc1csc(/C=C/C#N)n1` [Compound I-30], the “protection of HT22 cells” value is “perform better than the positive control drug DMF”.
Take `N#C/C=C/c1cccnc1` [Compound I-6]: the viability at 0.078 µM under setting [1] was 40.1%. Further, under setting [2], the viability at 0.156 µM came to 43.3%. Further, the viability at 0.313 µM under setting [10] is 42.9%. Moreover, the viability at 1.25 µM under setting [4] amounted to 40.9%. Besides, under setting [5], the viability at 2.5 µM was 43%. The viability at 5 µM under setting [6] was found to be 40.1%. Under setting [7], the viability at 10 µM came to 42.6%.
For `CN(C)C(=O)/C=C/c1ncccn1` [Compound I-19], under setting [14], the viability at 0.078 µM came out at 47.1%. Besides, the viability at 0.156 µM under setting [11] amounted to 39.2%. Further, the viability at 0.313 µM under setting [15] is 37.5%.
On to `COC(=O)/C=C/c1nccn1C` [Compound I-23], for which the “protection of HT22 cells” value was “equivalent to that of a positive control drug DMF”. Under setting [14], the viability at 0.078 µM amounted to 65.4%. Under setting [15], the viability at 0.313 µM stood at 38.3%. Besides, under setting [8], the viability at 1.25 µM came to 39%.
For the molecule `CN(C)C(=O)/C=C/c1nccn1C` [Compound I-24], the viability at 0.156 µM under setting [11] came out at 39.6%. Also, under setting [15], the viability at 0.313 µM is 38%. The viability at 2.5 µM under setting [9] worked out at 35.7%.
Regarding `COC(=O)/C=C/c1ccncc1` [Compound I-4], the viability at 0.078 µM under setting [1] turned out to be 45.1%. Moreover, the viability at 0.156 µM under setting [2] was 44.1%. Under setting [10], the viability at 0.313 µM stood at 42.7%. The viability at 0.625 µM under setting [3] was 42.3%. For the same molecule, under setting [4], the viability at 1.25 µM stood at 41.3%. In addition, under setting [5], the viability at 2.5 µM amounted to 40.5%. In addition, under setting [6], the viability at 5 µM is 40.2%. Also, the viability at 10 µM under setting [7] amounted to 37.6%.
On to `N#C/C=C/c1ccncc1` [Compound I-7], for which the viability at 0.078 µM under setting [1] is 48.8%. Moreover, the viability at 0.156 µM under setting [2] worked out at 48%. Moreover, the viability at 0.313 µM under setting [10] came to 42.8%. Moreover, the viability at 0.625 µM under setting [3] was 40.6%. The viability at 1.25 µM under setting [4] is 55.5%. Further, the viability at 5 µM under setting [6] turned out to be 32.2%.
With `CON(C)C(=O)/C=C/c1cccnc1` [Compound I-9], under setting [1], the viability at 0.078 µM is 35.5%. For the same molecule, the viability at 0.156 µM under setting [2] came to 35.8%. Moreover, under setting [10], the viability at 0.313 µM is 40.8%. Besides, the viability at 0.625 µM under setting [3] came out at 45.8%. For the same molecule, under setting [4], the viability at 1.25 µM was found to be 41.6%. Also, under setting [5], the viability at 2.5 µM came to 40.1%. Further, under setting [6], the viability at 5 µM worked out at 43.4%. The viability at 10 µM under setting [7] was determined as 40.1%.
For the molecule `CON(C)C(=O)/C=C/c1ccncn1` [Compound I-21], the viability at 2.5 µM under setting [9] amounted to 60.3%. The viability at 10 µM under setting [13] came to 58.4%.
With `COC(=O)/C=C/c1ncccn1` [Compound I-18], the viability at 5 µM under setting [12] turned out to be 40.9%.
